Measured values as given in PubChem BioAssay (NCI).
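Results reflect a 48-hour exposure of cells in 96-well plates to compound at five concentrations. Here, GI50 denotes the concentration required for 50% inhibition of growth. TGI is the concentration that stops growth completely.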

Experiments:
Test in all cases: NCI tumour cell line growth inhibition, 48 h
786-0 renal = test system: 786-0 renal
SF-268 CNS = test system: SF-268 CNS
MDA-MB-435 = test system: MDA-MB-435
RXF 393 renal = test system: RXF 393 renal
SF-295 CNS = test system: SF-295 CNS
T-47D breast = test system: T-47D breast
HCT-15 colon = test system: HCT-15 colon
BT-549 breast = test system: BT-549 breast
UO-31 renal = test system: UO-31 renal
OVCAR-4 ovarian = test system: OVCAR-4 ovarian

Compound	GI50 (786-0 renal)	TGI (786-0 renal)	GI50 (SF-268 CNS)	TGI (SF-268 CNS)	GI50 (MDA-MB-435)	TGI (MDA-MB-435)	GI50 (RXF 393 renal)	TGI (RXF 393 renal)	GI50 (SF-295 CNS)	TGI (SF-295 CNS)	GI50 (T-47D breast)	TGI (T-47D breast)	GI50 (HCT-15 colon)	TGI (HCT-15 colon)	GI50 (BT-549 breast)	TGI (BT-549 breast)	GI50 (UO-31 renal)	TGI (UO-31 renal)	GI50 (OVCAR-4 ovarian)	TGI (OVCAR-4 ovarian)
COc1ccc(-c2nc(-c3cn(C)c4ncccc34)cs2)cc1	51.5 µM	> 100 µM	82.6 µM	> 100 µM	2.79 µM	> 100 µM	55.2 µM	> 100 µM	20.3 µM	> 100 µM	12.5 µM	> 100 µM	25.3 µM	> 100 µM	68 µM	> 100 µM	> 100 µM	> 100 µM	> 100 µM	> 100 µM
C[C@]12CCC(=O)C(O)=C1CC[C@@H]1[C@@H]2CC[C@]2(C)C(=O)CC[C@@H]12		> 100 µM		> 100 µM		> 100 µM		> 100 µM		> 100 µM		> 100 µM		> 100 µM		> 100 µM		> 100 µM		> 100 µM
O=C(NC(=S)Nc1ccc(Cl)cc1)c1ccccc1	> 87.4 µM	> 100 µM	76 µM	> 100 µM	> 100 µM	> 100 µM	> 56.2 µM	> 100 µM	> 65.1 µM	> 100 µM	> 90.3 µM	> 100 µM	> 100 µM	> 100 µM	> 100 µM	> 100 µM	99 µM	> 100 µM	> 46.5 µM	> 100 µM
C=C1C(=O)O[C@H]2[C@H]1CC/C(Cn1cc(-c3ccccc3)nn1)=C\CC[C@@]1(C)O[C@@H]21	2.63 µM	8.79 µM	5.63 µM	13.4 µM	2.37 µM	9.18 µM	1.55 µM	4.22 µM	7.88 µM	15.4 µM	1.3 µM	3.94 µM	0.769 µM	1.68 µM	2.65 µM	8.97 µM	0.87 µM	1.96 µM	3.22 µM	12.1 µM
Cc1cc2c(F)c(Oc3ncnn4cc(OC[C@@H](C)OC(=O)[C@H](C)N)c(C)c34)ccc2[nH]1	12 µM	26.9 µM	8 µM	23.5 µM	11.3 µM	23.8 µM	8.4 µM	22.5 µM	7.87 µM	21.3 µM	13.4 µM	31.7 µM	0.882 µM	14 µM	8.43 µM	22 µM	7.58 µM	21.4 µM	11.3 µM	23.8 µM
CCOC(CN=c1nc(N(C)C)ss1)OCC		39.7 µM		59.8 µM		32.4 µM		37.3 µM		43.8 µM		> 63.7 µM		42.8 µM		55.5 µM		63.3 µM		33.1 µM
Cn1c(=O)c2[nH]c(CS(=O)(=O)Cc3nc4c([nH]3)c(=O)n(C)c(=O)n4C)nc2n(C)c1=O		> 100 µM		> 100 µM		> 100 µM		> 100 µM		> 100 µM		> 100 µM		> 100 µM		> 100 µM		> 100 µM		> 100 µM
Cc1[nH]c(/C=C2\C(=O)Nc3ccc(F)cc32)c(C)c1C(=O)NC[C@H](O)CN1CCOCC1	4.91 µM	> 10 µM	4.83 µM	> 10 µM	3.2 µM	> 10 µM	2.33 µM	> 10 µM	> 10 µM	> 10 µM	> 10 µM	> 10 µM	2.83 µM	> 10 µM	6.47 µM	> 10 µM	1.47 µM	> 10 µM	7.95 µM	> 10 µM
CC1(C)OCC(CO)(Nc2nc(N3CC3)nc(N3CC3)n2)CO1		18.7 µM		27.6 µM		46.4 µM		28.6 µM		20.3 µM		45 µM		45.8 µM		93.5 µM		23.1 µM		41.9 µM
OCCCCC#Cc1ccccc1C#Cc1ccccc1C(F)(F)F	10.3 µM	24.9 µM	17.4 µM	33.7 µM	0.847 µM	2.75 µM	3.39 µM	12.5 µM	2.34 µM	6.7 µM	19.8 µM	47.2 µM	3.5 µM	16 µM	17.1 µM	31.7 µM	11.8 µM	24.1 µM	18.4 µM	36.4 µM
O=C1OC(=O)C2C1C1(c3ccccc3)C(c3ccccc3)=C(c3ccccc3)C2(c2ccccc2)S1=O (stereo not given)	> 100 µM	> 100 µM	> 100 µM	> 100 µM	> 100 µM	> 100 µM	> 100 µM	> 100 µM	> 100 µM	> 100 µM	> 100 µM	> 100 µM	> 100 µM	> 100 µM	26.3 µM	> 100 µM	> 100 µM	> 100 µM	> 100 µM	> 100 µM
